Experimental data taken from ChEMBL document CHEMBL3259629, “Discovery and optimization of piperidyl-1,2,3-triazole ureas as potent, selective, and in vivo-active inhibitors of α/β-hydrolase domain containing 6 (ABHD6)” (J Med Chem, 2013).

Tests used:
Conditions in all cases: Neuro2a, 3 nM
[1] = target: T1, Acylamino-acid-releasing enzyme (Mus musculus) (UniProt Q8R146)
T1 sequence (whole entry): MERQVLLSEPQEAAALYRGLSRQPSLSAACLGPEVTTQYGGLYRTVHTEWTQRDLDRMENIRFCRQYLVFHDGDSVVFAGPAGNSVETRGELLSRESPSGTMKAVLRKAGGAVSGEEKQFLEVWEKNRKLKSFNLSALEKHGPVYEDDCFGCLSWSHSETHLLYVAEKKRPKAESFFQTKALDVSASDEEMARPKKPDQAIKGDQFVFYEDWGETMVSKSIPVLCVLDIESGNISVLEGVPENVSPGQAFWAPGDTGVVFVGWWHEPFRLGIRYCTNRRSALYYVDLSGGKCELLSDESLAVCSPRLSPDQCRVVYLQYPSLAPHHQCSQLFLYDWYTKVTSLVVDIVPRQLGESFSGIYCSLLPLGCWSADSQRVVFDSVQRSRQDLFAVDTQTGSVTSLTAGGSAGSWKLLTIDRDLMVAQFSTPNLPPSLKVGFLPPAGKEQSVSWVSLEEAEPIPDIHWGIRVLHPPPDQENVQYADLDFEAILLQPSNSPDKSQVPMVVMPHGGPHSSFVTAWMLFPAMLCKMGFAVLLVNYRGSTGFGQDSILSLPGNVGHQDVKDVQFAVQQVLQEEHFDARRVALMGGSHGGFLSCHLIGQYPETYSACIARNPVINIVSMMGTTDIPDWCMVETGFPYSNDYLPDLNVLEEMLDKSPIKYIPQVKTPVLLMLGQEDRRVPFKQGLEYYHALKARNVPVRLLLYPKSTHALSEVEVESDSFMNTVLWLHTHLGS
Description: Inhibition of Apeh in mouse Neuro2a cells at 3 nM after 4 hrs by ABPP-SILAC assay

[2] = target: T2, Lysosomal phospholipase A and acyltransferase (Mus musculus) (UniProt Q8VEB4)
T2 sequence (whole entry): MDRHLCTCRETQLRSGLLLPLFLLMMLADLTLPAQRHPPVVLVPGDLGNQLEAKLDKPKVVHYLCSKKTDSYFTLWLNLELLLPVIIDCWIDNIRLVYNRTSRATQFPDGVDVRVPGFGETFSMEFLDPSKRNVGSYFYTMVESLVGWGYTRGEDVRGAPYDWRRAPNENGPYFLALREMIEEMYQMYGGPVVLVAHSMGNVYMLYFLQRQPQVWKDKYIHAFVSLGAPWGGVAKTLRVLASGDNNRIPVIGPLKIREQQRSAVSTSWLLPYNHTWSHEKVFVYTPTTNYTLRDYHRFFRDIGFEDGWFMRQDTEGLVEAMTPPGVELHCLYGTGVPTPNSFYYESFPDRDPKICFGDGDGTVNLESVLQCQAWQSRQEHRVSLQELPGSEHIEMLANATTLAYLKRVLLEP
Description: Inhibition of Lypla3 in mouse Neuro2a cells at 3 nM after 4 hrs by ABPP-SILAC assay

[3] = target: T3, Hormone-sensitive lipase (Mus musculus) (UniProt P54310)
T3 sequence (whole entry): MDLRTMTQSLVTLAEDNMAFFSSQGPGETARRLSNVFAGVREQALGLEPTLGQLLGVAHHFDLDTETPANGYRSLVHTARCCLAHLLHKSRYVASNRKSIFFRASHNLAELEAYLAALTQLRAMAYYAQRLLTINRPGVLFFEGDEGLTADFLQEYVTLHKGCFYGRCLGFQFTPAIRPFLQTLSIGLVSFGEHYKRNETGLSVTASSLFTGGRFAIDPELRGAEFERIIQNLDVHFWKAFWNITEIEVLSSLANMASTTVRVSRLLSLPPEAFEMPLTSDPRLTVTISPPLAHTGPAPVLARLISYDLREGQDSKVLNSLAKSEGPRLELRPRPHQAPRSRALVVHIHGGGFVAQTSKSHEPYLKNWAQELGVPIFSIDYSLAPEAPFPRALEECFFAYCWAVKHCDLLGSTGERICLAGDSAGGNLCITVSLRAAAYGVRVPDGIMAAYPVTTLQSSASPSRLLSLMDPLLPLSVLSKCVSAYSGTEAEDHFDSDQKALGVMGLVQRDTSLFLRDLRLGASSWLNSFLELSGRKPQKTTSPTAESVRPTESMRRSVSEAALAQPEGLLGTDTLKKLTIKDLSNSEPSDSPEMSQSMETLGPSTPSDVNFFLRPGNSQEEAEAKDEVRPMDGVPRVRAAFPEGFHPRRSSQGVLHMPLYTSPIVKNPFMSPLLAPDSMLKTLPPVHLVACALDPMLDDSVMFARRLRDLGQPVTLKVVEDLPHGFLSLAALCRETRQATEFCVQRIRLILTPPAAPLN
Description: Inhibition of Lipe in mouse Neuro2a cells at 3 nM after 4 hrs by ABPP-SILAC assay

[4] = target: T4, Retinoid-inducible serine carboxypeptidase (Mus musculus) (UniProt Q920A5)
T4 sequence (whole entry): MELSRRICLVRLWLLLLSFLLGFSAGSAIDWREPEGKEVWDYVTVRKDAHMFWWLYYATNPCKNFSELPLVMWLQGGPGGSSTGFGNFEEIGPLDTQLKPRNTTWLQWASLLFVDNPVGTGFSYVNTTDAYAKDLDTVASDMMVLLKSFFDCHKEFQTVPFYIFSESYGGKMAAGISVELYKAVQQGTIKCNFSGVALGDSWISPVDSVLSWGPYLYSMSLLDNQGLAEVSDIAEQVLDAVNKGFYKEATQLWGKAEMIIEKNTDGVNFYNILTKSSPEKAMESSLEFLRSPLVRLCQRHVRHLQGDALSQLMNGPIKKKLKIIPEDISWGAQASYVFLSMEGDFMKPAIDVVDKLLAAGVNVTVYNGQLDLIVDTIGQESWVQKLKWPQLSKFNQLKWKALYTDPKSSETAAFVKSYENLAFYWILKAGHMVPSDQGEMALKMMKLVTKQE
Description: Inhibition of Scpep1 in mouse Neuro2a cells at 3 nM after 4 hrs by ABPP-SILAC assay

[5] = target: T5, Monoacylglycerol lipase ABHD6 (Mus musculus) (UniProt Q8R2Y0)
T5 sequence (whole entry): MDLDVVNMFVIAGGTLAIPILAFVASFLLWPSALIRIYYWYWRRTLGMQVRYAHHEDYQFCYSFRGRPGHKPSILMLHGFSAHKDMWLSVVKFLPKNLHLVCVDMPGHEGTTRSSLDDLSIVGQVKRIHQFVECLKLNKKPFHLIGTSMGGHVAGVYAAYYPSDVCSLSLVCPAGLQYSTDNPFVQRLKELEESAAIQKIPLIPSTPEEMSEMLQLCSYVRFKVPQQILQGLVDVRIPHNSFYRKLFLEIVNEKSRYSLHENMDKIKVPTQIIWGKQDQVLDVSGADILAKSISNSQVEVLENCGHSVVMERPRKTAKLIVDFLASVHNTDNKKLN
Description: Inhibition of Abhd6 in mouse Neuro2a cells at 3 nM after 4 hrs by ABPP-SILAC assay

| Compound | inhibition [1] | inhibition [2] | inhibition [3] | inhibition [4] | inhibition [5] |
| --- | --- | --- | --- | --- | --- |
| O=C(O)c1cccc(-c2ccc(-c3cn(C(=O)N4CCCCC4Cc4ccccc4)nn3)cc2)c1 (racemic) | < 50% | < 50% | < 50% | < 50% | > 90% |
| O=C(N1CCCCC1c1ccccc1)n1cc(-c2ccc(-c3cccc(CO)c3)cc2)nn1 (racemic) | < 50% | < 50% | < 50% | < 50% | > 90% |
| O=C(c1cccc(-c2ccc(-c3cn(C(=O)N4CCCCC4c4ccccc4)nn3)cc2)c1)N1CCCCC1 (racemic) | < 50% | < 50% | < 50% | < 50% | > 80% |
